These compounds were tested against Axl (Homo sapiens (Human), UniProt P30530) (assay: Phospho-Akt in-cell Western assay (Axl-antibody cross-linking stimulation)). Settings: inhibition of Axl activity, Hela cells, phospho-Akt readout; Table 5, formula (Ia3).
Sequence of Axl (P30530 26-894): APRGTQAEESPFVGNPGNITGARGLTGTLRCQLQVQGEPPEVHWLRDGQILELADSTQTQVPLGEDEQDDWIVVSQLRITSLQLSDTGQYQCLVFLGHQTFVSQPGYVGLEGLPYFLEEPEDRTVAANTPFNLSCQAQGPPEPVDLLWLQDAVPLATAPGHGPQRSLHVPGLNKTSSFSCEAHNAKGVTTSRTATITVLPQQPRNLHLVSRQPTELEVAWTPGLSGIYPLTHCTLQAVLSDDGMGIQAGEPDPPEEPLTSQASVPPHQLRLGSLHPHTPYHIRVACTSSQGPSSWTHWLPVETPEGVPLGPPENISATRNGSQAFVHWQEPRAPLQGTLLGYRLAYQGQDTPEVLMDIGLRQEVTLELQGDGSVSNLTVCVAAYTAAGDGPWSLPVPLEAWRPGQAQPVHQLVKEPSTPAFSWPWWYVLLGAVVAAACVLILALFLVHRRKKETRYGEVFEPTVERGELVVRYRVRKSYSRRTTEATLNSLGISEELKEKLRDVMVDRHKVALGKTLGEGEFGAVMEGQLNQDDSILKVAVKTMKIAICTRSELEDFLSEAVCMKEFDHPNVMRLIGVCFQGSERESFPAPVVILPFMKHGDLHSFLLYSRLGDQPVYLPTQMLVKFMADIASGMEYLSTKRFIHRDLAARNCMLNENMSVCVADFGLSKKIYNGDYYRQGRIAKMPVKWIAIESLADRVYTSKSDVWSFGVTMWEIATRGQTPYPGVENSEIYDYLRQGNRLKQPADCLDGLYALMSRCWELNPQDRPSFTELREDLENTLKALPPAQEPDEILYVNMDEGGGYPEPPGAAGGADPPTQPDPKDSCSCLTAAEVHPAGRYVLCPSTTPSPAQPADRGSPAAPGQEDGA
Format: cell-based
How it was run: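 HeLa cells on poly-L-lysine, starved 24 hrs with Axl/Fc, pre-treated with compound 1 hr at 37° C., then stimulated 5 min with Axl primary/secondary antibody cluster. Fixed cells probed for phospho-Akt by chemiluminescent in-cell Western; signal normalized to crystal violet cell number.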
With `COc1ccc2nc(Cl)c(-n3nc(Nc4ccc(N5CCC(N6CCCC6)CC5)c(F)c4)nc3N)nc2c1` [Compound 256, 1-(2-chloro-6-methoxy-quinoxalin-3-yl)-N^3-(3-fluoro-4-(4-(pyrrolidin-1-yl)piperidin-1-yl)phenyl)-1H-1,2,4-triazole-3,5-diamine] the IC50 was < 1 µM.
`Nc1nc(Nc2ccc(N3CCC(N4CCCC4)CC3)c(F)c2)nn1-c1cc(-c2ccccc2)ccn1` [Compound 259, 1-(4-phenylpyridin-2-yl)-N^3-(3-fluoro-4-(4-(pyrrolidin-1-yl)piperidin-1-yl)phenyl)-1H-1,2,4-triazole-3,5-diamine] was tested, and the IC50 was < 1 µM.
`Cc1csc2c(-n3nc(Nc4ccc(N5CCC(N6CC7CCC6C7)CC5)c(F)c4)nc3N)ncnc12` (stereo not shown) [Compound 260, 1-(7-methylthieno[3,2-d]pyrimidin-4-yl)-N^3-(3-fluoro-4-(4-(2-azabicyclo[2.2.1]heptan-2-yl)piperidin-1-yl)phenyl)-1H-1,2,4-triazole-3,5-diamine] was tested, and the IC50 was < 1 µM.
`Cc1csc2c(-n3nc(Nc4ccc(C5CCN(C6CC7CCC6C7)CC5)cc4)nc3N)ncnc12` (stereo not shown) [Compound 261, 1-(7-methylthieno[3,2-d]pyrimidin-4-yl)-N^3-(4-(1-(bicyclo[2.2.1]heptan-2-yl)piperidin-4-yl)phenyl)-1H-1,2,4-triazole-3,5-diamine] was tested, and the IC50 was < 1 µM.

Same assay, conditions: inhibition of Axl activity, phospho-Akt in-cell Western assay
In the case of `Cc1cc(Nc2nc(N)n(-c3ncnc4c(C)csc34)n2)ccc1N1CCN([C@H]2C[C@@H]3CC[C@H]2C3)[C@H](C)C1` [Compound 254, 1-(7-methylthieno[3,2-d]pyrimidin-4-yl)-N^3-(3-methyl-4-(3-(R)-methyl-4-((1S,2S,4R)-bicyclo[2.2.1]heptan-2-yl)piperazin-1-yl)phenyl)-1H-1,2,4-triazole-3,5-diamine], the IC50 is reported as < 1 µM.
For `C[C@H]1CN(c2ccc(Nc3nc(N)n(-c4ncnc5ccsc45)n3)cc2F)CCN1[C@H]1C[C@@H]2CC[C@H]1C2` [Compound 255, 1-thieno[3,2-d]pyrimidin-4-yl-N^3-(3-fluoro-4-(3-(S)-methyl-4-((1S,2S,4R)-bicyclo[2.2.1]heptan-2-yl)piperazin-1-yl)phenyl)-1H-1,2,4-triazole-3,5-diamine], the IC50 was < 1 µM.
With `Cc1csc2c(-n3nc(Nc4ccc(N5CCN([C@H]6C[C@@H]7CC[C@H]6C7)[C@@H](C)C5)c(F)c4)nc3N)nc(Cl)nc12` [Compound 257] the IC50 was < 1 µM.

From patent US10166216B2 (Rigel Pharmaceuticals, Inc., priority 2006, dated 2019)
